From US12172983B2, “EGFR inhibitors” (Blueprint Medicines Corporation, priority 2019, dated 2024) come the findings set out here.

Each structure is given as a SMILES string.

One test concerns the target T1, EGFR (L858R T790M C797S) (Homo sapiens, UniProt P00533, C797S/L858R/T790M).
T1 construct: purchased SignalChem E10-122VG
The test can be described thus: Biochemical EGFR inhibition assay (Caliper mobility shift), EGFR LRTMCS mutant. Conditions: inhibitory activity against EGFR LRTMCS mutant; apparent IC50; read-out: Ext Enz LRTMCS. In outline: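 Caliper mobility shift read-out: product and substrate peptides separated by electrophoresis and quantified. Reactions at 25° C. taken to 10–20% peptide phosphorylation, quenched with 35 mM EDTA. Apparent IC50 from percent activity vs log [compound].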

The subject of test [1] is phosphorylation of EGFR (Tyr1068) in NCI-H1975 cell line that harbors the EGFR L858R T790M mutations. The test can be described thus: NCI-H1975 pEGFR AlphaLISA assay. Conditions: Homo sapiens, NCI-H1975, inhibition of phosphorylation of mutant EGFR in NCI-H1975 cells; 4-5 hours incubation; read-out: Ext pEGFR H1975. The test is classed as cell-based. In outline:
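Phospho-EGFR Tyr1068 AlphaLISA readout: lysates taken from compound-treated H1975 cells (L858R T790M EGFR) after a 4-5 h exposure at 37 °C. Cells had adhered overnight beforehand. IC50 derived by plotting % pEGFR inhibition against log compound concentration.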
Background: Alpha assays give light when donor and acceptor beads are brought close together.

T1 sequence (P00533 25-1210 T790M/C797S/L858R): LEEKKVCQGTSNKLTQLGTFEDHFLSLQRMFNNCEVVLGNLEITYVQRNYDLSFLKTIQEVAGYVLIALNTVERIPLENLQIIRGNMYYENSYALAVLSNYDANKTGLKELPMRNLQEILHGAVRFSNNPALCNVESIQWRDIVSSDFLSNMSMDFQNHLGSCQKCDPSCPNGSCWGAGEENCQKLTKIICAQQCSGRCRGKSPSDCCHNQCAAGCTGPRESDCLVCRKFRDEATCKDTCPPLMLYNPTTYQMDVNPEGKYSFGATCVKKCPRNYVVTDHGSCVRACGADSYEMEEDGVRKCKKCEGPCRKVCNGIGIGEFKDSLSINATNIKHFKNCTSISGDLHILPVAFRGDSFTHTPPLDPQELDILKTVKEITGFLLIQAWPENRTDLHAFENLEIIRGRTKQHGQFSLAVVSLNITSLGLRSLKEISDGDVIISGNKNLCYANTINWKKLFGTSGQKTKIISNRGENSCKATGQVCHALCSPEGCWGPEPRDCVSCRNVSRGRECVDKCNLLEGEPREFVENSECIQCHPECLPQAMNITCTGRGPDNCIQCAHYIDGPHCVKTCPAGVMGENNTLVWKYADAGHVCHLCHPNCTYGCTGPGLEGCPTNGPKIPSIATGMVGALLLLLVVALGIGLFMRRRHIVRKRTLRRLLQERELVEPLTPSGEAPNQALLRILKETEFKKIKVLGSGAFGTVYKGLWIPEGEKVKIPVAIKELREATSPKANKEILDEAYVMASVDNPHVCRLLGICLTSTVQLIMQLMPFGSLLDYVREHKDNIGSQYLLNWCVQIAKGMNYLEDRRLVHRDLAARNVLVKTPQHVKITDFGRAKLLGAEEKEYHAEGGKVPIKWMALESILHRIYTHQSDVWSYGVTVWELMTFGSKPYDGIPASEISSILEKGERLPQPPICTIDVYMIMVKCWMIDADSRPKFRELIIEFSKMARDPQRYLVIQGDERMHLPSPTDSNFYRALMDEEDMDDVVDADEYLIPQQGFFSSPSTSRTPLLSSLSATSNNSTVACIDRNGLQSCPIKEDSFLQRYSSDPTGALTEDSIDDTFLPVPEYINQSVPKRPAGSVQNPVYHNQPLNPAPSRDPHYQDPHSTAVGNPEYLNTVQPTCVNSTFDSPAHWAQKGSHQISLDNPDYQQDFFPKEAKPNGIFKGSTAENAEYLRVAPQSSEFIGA

For the molecule `CO[C@H]1CCN(c2nccc(Nc3cc4c([C@@H](C)CO)cnc(N5C[C@H](CS(C)(=O)=O)[C@H]5C)c4cn3)n2)C[C@H]1F` (single isomer, unassigned) [Compound 208, (2R)-2-[6-({2-[(3R,4S)-3-fluoro-4-methoxypiperidin-1-yl]pyrimidin-4-yl}amino)-1-[(2R,3S)-3-(methanesulfonylmethyl)-2-methylazetidin-1-yl]-2,7-naphthyridin-4-yl]propan-1-ol or (2S)-2-[6-({2-[(3R,4S)-3-fluoro-4-methoxypiperidin-1-yl]pyrimidin-4-yl}amino)-1-[(2R,3S)-3-(methanesulfonylmethyl)-2-methylazetidin-1-yl]-2,7-naphthyridin-4-yl]propan-1-ol], the IC50 is no more than 15 nM at EGFR (L858R T790M C797S) and 10.1 to 20 nM in test [1].
For the molecule `C[C@H](CO)c1ccc(N2C[C@H](CS(C)(=O)=O)[C@H]2C)c2cnc(Nc3ccnc(N4CC[C@](C)(O)[C@H](F)C4)n3)cc12` (single isomer, unassigned) [Compound 197, (3R,4S)-3-fluoro-1-[4-({5-[(2S)-1-hydroxypropan-2-yl]-8-[(2R,3S)-3-(methanesulfonylmethyl)-2-methylazetidin-1-yl]isoquinolin-3-yl}amino)pyrimidin-2-yl]-4-methylpiperidin-4-ol or (3R,4S)-3-fluoro-1-[4-({5-[(2R)-1-hydroxypropan-2-yl]-8-[(2R,3S)-3-(methanesulfonylmethyl)-2-methylazetidin-1-yl]isoquinolin-3-yl}amino)pyrimidin-2-yl]-4-methylpiperidin-4-ol], the IC50 at EGFR (L858R T790M C797S) was no more than 15 nM; in test [1], 30.1 to 50 nM.
For the molecule `CO[C@H]1CCN(c2nncc(Nc3cc4c(C(C)C)ccc(N5CC(CS(C)(=O)=O)C5)c4cn3)n2)C[C@H]1F` [Compound 76, N-{3-[(3R,4S)-3-fluoro-4-methoxypiperidin-1-yl]-1,2,4-triazin-5-yl}-8-[3-(methanesulfonylmethyl)azetidin-1-yl]-5-(propan-2-yl)isoquinolin-3-amine], the IC50 is no more than 15 nM at EGFR (L858R T790M C797S) and no more than 10 nM in test [1].
For `CNCCO[C@@H]1CCN(c2nccc(Nc3cc4c(C(C)C)ccc(N5C[C@H](CS(C)(=O)=O)[C@H]5C)c4cn3)n2)C[C@@H]1F` [Compound 240, N-{2-[(3S,4R)-3-fluoro-4-[2-(methylamino)ethoxy]piperidin-1-yl]pyrimidin-4-yl}-8-[(2R,3S)-3-(methanesulfonylmethyl)-2-methylazetidin-1-yl]-5-(propan-2-yl)isoquinolin-3-amine], the IC50 at EGFR (L858R T790M C797S) was no more than 15 nM; in test [1], no more than 10 nM.
The like results for `CO[C@H]1CN(c2nccc(Nc3cc4c(C(C)C)ccc(N5C[C@H](CS(C)(=O)=O)[C@H]5C)c4cn3)n2)CC[C@@H]1O` (single isomer, unassigned) [Compound 98, (3R,4R)-1-[4-({8-[(2R,3S)-3-(methanesulfonylmethyl)-2-methylazetidin-1-yl]-5-(propan-2-yl)isoquinolin-3-yl}amino)pyrimidin-2-yl]-3-methoxypiperidin-4-ol or (3S,4S)-1-[4-({8-[(2R,3S)-3-(methanesulfonylmethyl)-2-methylazetidin-1-yl]-5-(propan-2-yl)isoquinolin-3-yl}amino)pyrimidin-2-yl]-3-methoxypiperidin-4-ol] were, in that order, no more than 15 nM and 10.1 to 20 nM.
Consider `CCS(=O)(=O)C[C@H]1CN(c2ncc(C(C)C)c3cc(Nc4ccnc(N5CC[C@](C)(O)[C@H](F)C5)n4)ncc23)[C@@H]1C` (single isomer, unassigned) [Compound 191], for which the IC50 on EGFR (L858R T790M C797S) was no more than 15 nM; in test [1], no more than 10 nM.
As to `CC(C)c1ccc(N2C[C@H](CS(C)(=O)=O)[C@H]2C)c2cnc(Nc3ccnc(N4CCC(OCCN)CC4)n3)cc12` [Compound 168, N-{2-[4-(2-aminoethoxy)piperidin-1-yl]pyrimidin-4-yl}-8-[(2R,3S)-3-(methanesulfonylmethyl)-2-methylazetidin-1-yl]-5-(propan-2-yl)isoquinolin-3-amine], the IC50 on EGFR (L858R T790M C797S) was no more than 15 nM; in test [1] it was 10.1 to 20 nM.
Turning to `CCS(=O)(=O)CC1CN(c2ccc(C(C)C)c3cc(Nc4ccnc(N5C[C@@H](F)[C@@H](O)C(C)(C)C5)n4)ncc23)C1` (single isomer, unassigned) [Compound 182, (4S,5R)-1-{4-[(8-{3-[(ethanesulfonyl)methyl]azetidin-1-yl}-5-(propan-2-yl)isoquinolin-3-yl)amino]pyrimidin-2-yl}-5-fluoro-3,3-dimethylpiperidin-4-ol or (4R,5S)-1-{4-[(8-{3-[(ethanesulfonyl)methyl]azetidin-1-yl}-5-(propan-2-yl)isoquinolin-3-yl)amino]pyrimidin-2-yl}-5-fluoro-3,3-dimethylpiperidin-4-ol], the IC50 on EGFR (L858R T790M C797S) is no more than 15 nM; in test [1], no more than 10 nM.
On to `CCS(=O)(=O)C[C@H]1CN(c2ncc(C(C)C)c3cc(Nc4ccnc(N5CC[C@@H](OCCO)[C@@H](F)C5)n4)ncc23)[C@@H]1C` [Compound 249, 2-{[(3S,4R)-1-[4-({8-[(2R,3S)-3-[(ethanesulfonyl)methyl]-2-methylazetidin-1-yl]-5-(propan-2-yl)-2,7-naphthyridin-3-yl}amino)pyrimidin-2-yl]-3-fluoropiperidin-4-yl]oxy}ethan-1-ol], for which the IC50 is no more than 15 nM on EGFR (L858R T790M C797S) and no more than 10 nM in test [1].
The like results for `CC(C)c1ccc(N2CC(CS(C)(=O)=O)C2)c2cnc(Nc3ccnc(N4CC[C@@H](F)[C@@H](O)C4)n3)cc12` (single isomer, unassigned) [Compound 26, (3R,4S)-4-fluoro-1-[4-({8-[3-(methanesulfonylmethyl)azetidin-1-yl]-5-(propan-2-yl)isoquinolin-3-yl}amino)pyrimidin-2-yl]piperidin-3-ol or (3S,4R)-4-fluoro-1-[4-({8-[3-(methanesulfonylmethyl)azetidin-1-yl]-5-(propan-2-yl)isoquinolin-3-yl}amino)pyrimidin-2-yl]piperidin-3-ol] were, in that order, no more than 15 nM and no more than 10 nM.
Turning to `CC(C)c1ccc(N2CC(CS(C)(=O)=O)C2)c2cnc(Nc3ccnc(N4C[C@H](F)[C@H](O)C(C)(C)C4)n3)cc12` (single isomer, unassigned) [Compound 109, (4S,5R)-5-fluoro-1-[4-({8-[3-(methanesulfonylmethyl)azetidin-1-yl]-5-(propan-2-yl)isoquinolin-3-yl}amino)pyrimidin-2-yl]-3,3-dimethylpiperidin-4-ol or (4R,5S)-5-fluoro-1-[4-({8-[3-(methanesulfonylmethyl)azetidin-1-yl]-5-(propan-2-yl)isoquinolin-3-yl}amino)pyrimidin-2-yl]-3,3-dimethylpiperidin-4-ol], the results for the IC50 (at EGFR (L858R T790M C797S); in test [1]) were no more than 15 nM and no more than 10 nM, respectively.
The like results for `CC(C)c1ccc(N2CC(CS(C)(=O)=O)C2)c2cnc(Nc3ccnc(N4CC[C@H](OCCO)[C@H](F)C4)n3)cc12` [Compound 290, 2-{[(3R,4S)-3-fluoro-1-[4-({8-[3-(methanesulfonylmethyl)azetidin-1-yl]-5-(propan-2-yl)isoquinolin-3-yl}amino)pyrimidin-2-yl]piperidin-4-yl]oxy}ethan-1-ol] were, in that order, no more than 15 nM and no more than 10 nM.
Taken in the same sequence, the figures for `C[C@H](CO)c1ccc(N2C[C@@H](CS(C)(=O)=O)[C@@H]2C)c2cnc(Nc3ccnc(N4CC[C@@H](O)[C@@](C)(F)C4)n3)cc12` (single isomer, unassigned) [Compound 196, (3S,4R)-3-fluoro-1-[4-({5-[(2S)-1-hydroxypropan-2-yl]-8-[(2S,3R)-3-(methanesulfonylmethyl)-2-methylazetidin-1-yl]isoquinolin-3-yl}amino)pyrimidin-2-yl]-3-methylpiperidin-4-ol or (3S,4R)-3-fluoro-1-[4-({5-[(2R)-1-hydroxypropan-2-yl]-8-[(2S,3R)-3-(methanesulfonylmethyl)-2-methylazetidin-1-yl]isoquinolin-3-yl}amino)pyrimidin-2-yl]-3-methylpiperidin-4-ol] were no more than 15 nM and 10.1 to 20 nM.
Turning to `CC(C)c1ccc(N2CC(CS(C)(=O)=O)C2)c2cnc(Nc3ccnc(N4CC[C@H](O)[C@@H](C)C4)n3)cc12` (single isomer, unassigned) [Compound 18, (3S,4S)-1-[4-({8-[3-(methanesulfonylmethyl)azetidin-1-yl]-5-(propan-2-yl)isoquinolin-3-yl}amino)pyrimidin-2-yl]-3-methylpiperidin-4-ol or (3R,4R)-1-[4-({8-[3-(methanesulfonylmethyl)azetidin-1-yl]-5-(propan-2-yl)isoquinolin-3-yl}amino)pyrimidin-2-yl]-3-methylpiperidin-4-ol], the IC50 on EGFR (L858R T790M C797S) is no more than 15 nM; in test [1], no more than 10 nM.
Taken in the same sequence, the figures for `COC1(CCN)CCN(c2nccc(Nc3cc4c(C(C)C)ccc(N5C[C@H](CS(C)(=O)=O)[C@H]5C)c4cn3)n2)CC1` [Compound 221, N-{2-[4-(2-aminoethyl)-4-methoxypiperidin-1-yl]pyrimidin-4-yl}-8-[(2R,3S)-3-(methanesulfonylmethyl)-2-methylazetidin-1-yl]-5-(propan-2-yl)isoquinolin-3-amine] were no more than 15 nM and 30.1 to 50 nM.
